Assay results taken from ChEMBL document CHEMBL4507282, “Data for DCP probe BI-1950” (2021).

What was measured:
[1] = target: AP2-associated protein kinase 1 (Homo sapiens) (UniProt Q2M2I8); details: Compound concentration 1000.0 nM
[2] = tested on: Tyrosine-protein kinase ABL1 (Homo sapiens), P00519 [T315I]; details: Compound concentration 1000.0 nM
[3] = target: Serine/threonine-protein kinase B-raf (Homo sapiens) (UniProt P15056); details: Compound concentration 1000.0 nM
[4] = target: Serine/threonine-protein kinase Chk2 (Homo sapiens) (UniProt O96017); details: Compound concentration 1000.0 nM
[5] = target: Serine/threonine-protein kinase DCLK1 (Homo sapiens) (UniProt O15075); details: Compound concentration 1000.0 nM
[6] = target: Dual specificity tyrosine-phosphorylation-regulated kinase 1B (Homo sapiens) (UniProt Q9Y463); details: Compound concentration 1000.0 nM
[7] = tested on: Epidermal growth factor receptor (Homo sapiens), P00533 [L858R]; details: Compound concentration 1000.0 nM
[8] = tested on: Epidermal growth factor receptor (Homo sapiens), P00533 [UNDEFINED MUTATION]; details: Compound concentration 1000.0 nM
[9] = tested on: Fibroblast growth factor receptor 3 (Homo sapiens), P22607 [G697C]; details: Compound concentration 1000.0 nM
[10] = tested on: Receptor-type tyrosine-protein kinase FLT3 (Homo sapiens), P36888 [D835V]; details: Compound concentration 1000.0 nM
[11] = target: Tyrosine-protein kinase Fyn (Homo sapiens) (UniProt P06241); details: Compound concentration 1000.0 nM
[12] = target: G protein-coupled receptor kinase 4 (Homo sapiens) (UniProt P32298); details: Compound concentration 1000.0 nM
[13] = target: Homeodomain-interacting protein kinase 1 (Homo sapiens) (UniProt Q86Z02); details: Compound concentration 1000.0 nM
[14] = target: Insulin receptor-related protein (Homo sapiens) (UniProt P14616); details: Compound concentration 1000.0 nM
[15] = target: Serine/threonine-protein kinase STK11 (Homo sapiens) (UniProt Q15831); details: Compound concentration 1000.0 nM
[16] = target: Leucine-rich repeat serine/threonine-protein kinase 2 (Homo sapiens) (UniProt Q5S007); details: Compound concentration 1000.0 nM
[17] = target: Mitogen-activated protein kinase kinase kinase 3 (Homo sapiens) (UniProt Q99759); details: Compound concentration 1000.0 nM
[18] = target: Mitogen-activated protein kinase kinase kinase kinase 3 (Homo sapiens) (UniProt Q8IVH8); details: Compound concentration 1000.0 nM
[19] = target: Serine/threonine-protein kinase MARK2 (Homo sapiens) (UniProt Q7KZI7); details: Compound concentration 1000.0 nM
[20] = target: MAP kinase-interacting serine/threonine-protein kinase 1 (Homo sapiens) (UniProt Q9BUB5); details: Compound concentration 1000.0 nM
[21] = target: Mitogen-activated protein kinase kinase kinase 11 (Homo sapiens) (UniProt Q16584); details: Compound concentration 1000.0 nM
[22] = target: Serine/threonine-protein kinase 26 (Homo sapiens) (UniProt Q9P289); details: Compound concentration 1000.0 nM
[23] = target: Serine/threonine-protein kinase Nek6 (Homo sapiens) (UniProt Q9HC98); details: Compound concentration 1000.0 nM
[24] = target: Serine/threonine-protein kinase NIM1 (Homo sapiens) (UniProt Q8IY84); details: Compound concentration 1000.0 nM
[25] = target: Mitogen-activated protein kinase 11 (Homo sapiens) (UniProt Q15759); details: Compound concentration 1000.0 nM
[26] = target: Serine/threonine-protein kinase PAK 6 (Homo sapiens) (UniProt Q9NQU5); details: Compound concentration 1000.0 nM
[27] = target: Platelet-derived growth factor receptor alpha (Homo sapiens) (UniProt P16234); details: Compound concentration 1000.0 nM
[28] = target: Phosphatidylinositol 3-kinase C2 domain-containing subunit gamma (Homo sapiens) (UniProt O75747); details: Compound concentration 1000.0 nM
[29] = tested on: Phosphatidylinositol 4,5-bisphosphate 3-kinase catalytic subunit alpha isoform (Homo sapiens), P42336 [H1047Y]; details: Compound concentration 1000.0 nM
[30] = tested on: Phosphatidylinositol 4,5-bisphosphate 3-kinase catalytic subunit alpha isoform (Homo sapiens), P42336 [Q546K]; details: Compound concentration 1000.0 nM
[31] = target: cAMP-dependent protein kinase catalytic subunit alpha (Homo sapiens) (UniProt P17612); details: Compound concentration 1000.0 nM
[32] = target: Protein kinase C theta type (Homo sapiens) (UniProt Q04759); details: Compound concentration 1000.0 nM
[33] = target: cAMP-dependent protein kinase catalytic subunit PRKX (Homo sapiens) (UniProt P51817); details: Compound concentration 1000.0 nM
[34] = target: Protein-tyrosine kinase 2-beta (Homo sapiens) (UniProt Q14289); details: Compound concentration 1000.0 nM
[35] = target: Dual serine/threonine and tyrosine protein kinase (Homo sapiens) (UniProt Q6XUX3); details: Compound concentration 1000.0 nM
[36] = target: Proto-oncogene tyrosine-protein kinase Src (Homo sapiens) (UniProt P12931); details: Compound concentration 1000.0 nM
[37] = target: T1, 5-hydroxytryptamine receptor 3A (Homo sapiens) (UniProt P46098); details: Compound concentration 10.0 uM
T1 sequence (whole entry): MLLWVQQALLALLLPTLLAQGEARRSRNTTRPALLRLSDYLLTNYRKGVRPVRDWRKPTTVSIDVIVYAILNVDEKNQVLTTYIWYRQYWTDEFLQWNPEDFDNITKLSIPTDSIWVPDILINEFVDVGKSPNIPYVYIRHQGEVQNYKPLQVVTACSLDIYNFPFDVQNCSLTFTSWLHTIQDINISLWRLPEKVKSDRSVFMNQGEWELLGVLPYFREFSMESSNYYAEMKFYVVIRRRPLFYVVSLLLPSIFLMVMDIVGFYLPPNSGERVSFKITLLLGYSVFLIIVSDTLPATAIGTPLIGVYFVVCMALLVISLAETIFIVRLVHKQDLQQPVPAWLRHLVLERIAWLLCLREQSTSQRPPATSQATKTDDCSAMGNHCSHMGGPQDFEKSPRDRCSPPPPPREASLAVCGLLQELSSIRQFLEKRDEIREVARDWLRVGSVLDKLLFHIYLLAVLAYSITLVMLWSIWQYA

[38] = target: Histamine H4 receptor (Homo sapiens) (UniProt Q9H3N8); details: Compound concentration 10.0 uM

cAMP-dependent protein kinase catalytic subunit PRKX (Homo sapiens), sequence (P51817 whole entry): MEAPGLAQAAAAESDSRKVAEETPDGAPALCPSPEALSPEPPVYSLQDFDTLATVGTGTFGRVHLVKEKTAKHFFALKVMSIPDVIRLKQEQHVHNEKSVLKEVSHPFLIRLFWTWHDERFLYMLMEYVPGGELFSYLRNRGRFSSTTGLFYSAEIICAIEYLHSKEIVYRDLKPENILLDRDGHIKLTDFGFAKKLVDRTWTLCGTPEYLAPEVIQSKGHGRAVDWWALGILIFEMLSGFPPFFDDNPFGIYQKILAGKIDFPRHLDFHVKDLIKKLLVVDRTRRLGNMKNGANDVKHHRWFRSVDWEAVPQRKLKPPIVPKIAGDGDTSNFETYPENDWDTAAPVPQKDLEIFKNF
Serine/threonine-protein kinase MARK2 (Homo sapiens), sequence (Q7KZI7 whole entry): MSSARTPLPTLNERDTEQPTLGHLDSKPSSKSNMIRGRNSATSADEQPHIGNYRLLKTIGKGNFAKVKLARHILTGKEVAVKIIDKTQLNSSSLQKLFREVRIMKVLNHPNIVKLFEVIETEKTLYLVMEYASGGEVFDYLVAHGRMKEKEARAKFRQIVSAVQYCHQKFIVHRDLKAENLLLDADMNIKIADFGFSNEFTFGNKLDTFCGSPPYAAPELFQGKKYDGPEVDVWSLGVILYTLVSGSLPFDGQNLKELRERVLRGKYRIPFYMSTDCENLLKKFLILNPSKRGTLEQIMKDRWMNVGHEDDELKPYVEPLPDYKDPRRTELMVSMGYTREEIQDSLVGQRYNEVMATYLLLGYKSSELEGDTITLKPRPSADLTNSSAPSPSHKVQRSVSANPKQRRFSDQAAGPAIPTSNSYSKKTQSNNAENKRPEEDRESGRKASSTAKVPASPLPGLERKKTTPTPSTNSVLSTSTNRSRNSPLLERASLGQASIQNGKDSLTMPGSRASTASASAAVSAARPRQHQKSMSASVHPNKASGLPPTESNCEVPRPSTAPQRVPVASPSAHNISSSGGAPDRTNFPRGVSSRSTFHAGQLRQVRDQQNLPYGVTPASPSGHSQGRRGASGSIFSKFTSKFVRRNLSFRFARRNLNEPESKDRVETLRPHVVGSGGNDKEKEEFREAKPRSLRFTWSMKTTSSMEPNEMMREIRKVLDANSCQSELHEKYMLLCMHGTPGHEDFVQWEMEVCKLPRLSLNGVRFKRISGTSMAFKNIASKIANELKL
Serine/threonine-protein kinase Nek6 (Homo sapiens), sequence (Q9HC98 whole entry): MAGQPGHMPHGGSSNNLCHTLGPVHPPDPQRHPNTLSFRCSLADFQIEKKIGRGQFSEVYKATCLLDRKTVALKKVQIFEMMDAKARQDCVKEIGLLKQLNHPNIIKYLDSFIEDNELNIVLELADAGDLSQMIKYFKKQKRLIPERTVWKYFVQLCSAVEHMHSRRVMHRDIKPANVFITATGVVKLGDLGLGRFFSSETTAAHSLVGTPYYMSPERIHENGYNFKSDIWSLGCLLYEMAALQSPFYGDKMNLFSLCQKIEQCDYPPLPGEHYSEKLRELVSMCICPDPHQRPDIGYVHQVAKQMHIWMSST
Leucine-rich repeat serine/threonine-protein kinase 2 (Homo sapiens), sequence (Q5S007 whole entry): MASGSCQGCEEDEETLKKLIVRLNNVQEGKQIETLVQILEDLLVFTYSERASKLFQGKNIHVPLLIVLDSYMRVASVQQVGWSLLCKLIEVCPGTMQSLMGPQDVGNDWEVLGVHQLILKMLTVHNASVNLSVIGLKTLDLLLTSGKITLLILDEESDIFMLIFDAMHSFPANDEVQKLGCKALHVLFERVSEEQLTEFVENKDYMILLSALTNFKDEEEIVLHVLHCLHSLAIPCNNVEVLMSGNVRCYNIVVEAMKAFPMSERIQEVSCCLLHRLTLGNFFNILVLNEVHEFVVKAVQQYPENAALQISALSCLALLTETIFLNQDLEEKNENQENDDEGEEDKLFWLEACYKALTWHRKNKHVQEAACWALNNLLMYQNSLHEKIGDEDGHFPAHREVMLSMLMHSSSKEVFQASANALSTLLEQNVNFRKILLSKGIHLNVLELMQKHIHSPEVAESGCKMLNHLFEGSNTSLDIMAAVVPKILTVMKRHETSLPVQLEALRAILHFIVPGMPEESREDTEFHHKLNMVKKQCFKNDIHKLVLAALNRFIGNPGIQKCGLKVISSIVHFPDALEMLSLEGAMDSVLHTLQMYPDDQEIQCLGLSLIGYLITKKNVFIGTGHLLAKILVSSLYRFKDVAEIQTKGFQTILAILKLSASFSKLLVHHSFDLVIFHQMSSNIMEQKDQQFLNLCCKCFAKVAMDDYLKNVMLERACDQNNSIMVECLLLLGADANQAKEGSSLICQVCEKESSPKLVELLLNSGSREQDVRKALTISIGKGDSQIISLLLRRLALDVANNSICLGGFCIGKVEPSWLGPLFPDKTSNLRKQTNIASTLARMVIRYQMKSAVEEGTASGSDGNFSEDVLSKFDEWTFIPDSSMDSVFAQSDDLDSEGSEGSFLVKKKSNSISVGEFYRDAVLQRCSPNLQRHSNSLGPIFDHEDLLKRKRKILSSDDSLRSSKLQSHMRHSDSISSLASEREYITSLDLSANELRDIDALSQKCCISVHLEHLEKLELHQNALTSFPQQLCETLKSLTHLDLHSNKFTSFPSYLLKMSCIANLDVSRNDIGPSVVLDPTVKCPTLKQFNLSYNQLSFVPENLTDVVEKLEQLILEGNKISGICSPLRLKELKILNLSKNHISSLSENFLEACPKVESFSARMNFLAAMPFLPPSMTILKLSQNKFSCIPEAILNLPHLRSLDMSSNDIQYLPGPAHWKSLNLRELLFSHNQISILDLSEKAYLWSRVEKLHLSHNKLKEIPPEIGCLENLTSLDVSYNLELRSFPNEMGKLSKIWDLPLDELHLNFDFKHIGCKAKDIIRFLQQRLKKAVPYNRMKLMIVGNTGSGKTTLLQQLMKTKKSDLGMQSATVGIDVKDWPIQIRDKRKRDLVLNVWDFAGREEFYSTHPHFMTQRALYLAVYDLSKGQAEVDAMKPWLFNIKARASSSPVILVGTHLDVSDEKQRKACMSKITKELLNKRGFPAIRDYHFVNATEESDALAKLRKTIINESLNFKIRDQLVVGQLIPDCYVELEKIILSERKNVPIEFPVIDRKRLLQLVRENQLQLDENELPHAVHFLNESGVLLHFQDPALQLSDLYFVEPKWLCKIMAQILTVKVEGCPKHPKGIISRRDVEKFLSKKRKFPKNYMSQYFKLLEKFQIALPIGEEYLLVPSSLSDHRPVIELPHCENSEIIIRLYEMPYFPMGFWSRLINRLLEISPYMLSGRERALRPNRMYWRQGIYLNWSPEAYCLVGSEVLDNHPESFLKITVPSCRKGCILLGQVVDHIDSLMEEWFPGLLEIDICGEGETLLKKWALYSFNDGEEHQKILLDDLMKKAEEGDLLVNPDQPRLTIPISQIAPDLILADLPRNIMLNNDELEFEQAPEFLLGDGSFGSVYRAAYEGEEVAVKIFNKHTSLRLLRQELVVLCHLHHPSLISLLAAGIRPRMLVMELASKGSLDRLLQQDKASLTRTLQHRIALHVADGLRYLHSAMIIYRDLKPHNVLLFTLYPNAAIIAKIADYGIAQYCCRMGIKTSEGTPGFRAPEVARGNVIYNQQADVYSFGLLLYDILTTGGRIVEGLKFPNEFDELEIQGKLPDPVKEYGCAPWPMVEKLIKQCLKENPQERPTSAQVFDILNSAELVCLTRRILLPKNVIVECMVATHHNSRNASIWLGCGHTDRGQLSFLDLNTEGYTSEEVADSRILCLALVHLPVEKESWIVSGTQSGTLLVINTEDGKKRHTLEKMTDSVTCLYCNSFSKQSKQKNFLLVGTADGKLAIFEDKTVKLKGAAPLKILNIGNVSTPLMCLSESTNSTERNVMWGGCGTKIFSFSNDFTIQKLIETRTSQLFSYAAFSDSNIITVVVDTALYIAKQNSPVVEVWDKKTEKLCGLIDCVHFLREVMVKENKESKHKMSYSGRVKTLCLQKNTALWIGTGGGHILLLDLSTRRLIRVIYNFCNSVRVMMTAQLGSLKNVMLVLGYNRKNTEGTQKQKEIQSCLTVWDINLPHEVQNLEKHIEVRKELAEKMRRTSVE
Phosphatidylinositol 4,5-bisphosphate 3-kinase catalytic subunit alpha isoform (Homo sapiens), P42336 [H1047Y], sequence (P42336 whole entry H1047Y, canonical isoform): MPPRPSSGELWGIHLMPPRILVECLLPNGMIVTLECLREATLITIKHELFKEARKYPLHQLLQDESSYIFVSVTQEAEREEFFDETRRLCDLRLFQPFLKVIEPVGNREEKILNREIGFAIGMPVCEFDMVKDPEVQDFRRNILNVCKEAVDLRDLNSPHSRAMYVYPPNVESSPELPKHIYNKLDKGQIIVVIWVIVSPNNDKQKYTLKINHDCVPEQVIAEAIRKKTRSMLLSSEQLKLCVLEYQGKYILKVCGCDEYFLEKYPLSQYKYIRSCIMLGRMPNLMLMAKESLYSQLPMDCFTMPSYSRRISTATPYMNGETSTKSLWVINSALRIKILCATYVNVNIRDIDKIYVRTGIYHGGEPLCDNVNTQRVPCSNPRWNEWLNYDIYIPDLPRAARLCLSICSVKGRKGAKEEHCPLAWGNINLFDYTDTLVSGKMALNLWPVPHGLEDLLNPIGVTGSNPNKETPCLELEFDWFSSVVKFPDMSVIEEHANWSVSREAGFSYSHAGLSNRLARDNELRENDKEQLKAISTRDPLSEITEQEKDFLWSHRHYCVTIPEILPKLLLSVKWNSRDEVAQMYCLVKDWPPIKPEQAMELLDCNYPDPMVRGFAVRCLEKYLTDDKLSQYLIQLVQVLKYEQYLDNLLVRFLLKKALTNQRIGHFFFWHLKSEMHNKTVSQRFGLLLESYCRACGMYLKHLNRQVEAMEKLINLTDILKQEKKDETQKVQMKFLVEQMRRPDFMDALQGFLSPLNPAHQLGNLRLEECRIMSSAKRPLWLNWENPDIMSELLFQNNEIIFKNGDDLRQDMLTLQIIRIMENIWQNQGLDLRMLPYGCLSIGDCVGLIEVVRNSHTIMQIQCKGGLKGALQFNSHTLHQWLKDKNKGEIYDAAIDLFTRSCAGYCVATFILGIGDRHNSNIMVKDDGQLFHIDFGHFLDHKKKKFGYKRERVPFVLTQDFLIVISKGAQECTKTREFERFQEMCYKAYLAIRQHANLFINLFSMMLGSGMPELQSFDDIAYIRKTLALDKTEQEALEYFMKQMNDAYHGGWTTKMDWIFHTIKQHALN
Phosphatidylinositol 4,5-bisphosphate 3-kinase catalytic subunit alpha isoform (Homo sapiens), P42336 [Q546K], sequence (P42336 whole entry Q546K, canonical isoform): as the sequence (P42336 whole entry H1047Y, canonical isoform) above, with Q546K, Y1047H counted along it

C[C@H](NC(=O)c1cnc2n1[C@](C)(Cc1ccc(C#N)cc1)C(=O)N2c1cc(Cl)c(F)c(Cl)c1)C(=O)NC1(c2ccccn2)CC1 [BI 1950]
inactive: residual activity [1] 100% | residual activity [2] 85% | residual activity [3] 100% | residual activity [4] 100% | residual activity [5] 89% | residual activity [6] 100% | residual activity [7] 100% | residual activity [8] 100% | residual activity [9] 100% | residual activity [10] 100% | residual activity [11] 70% | residual activity [12] 100% | residual activity [13] 97% | residual activity [14] 100% | residual activity [15] 100% | residual activity [16] 100% | residual activity [17] 100% | residual activity [18] 100% | residual activity [19] 100% | residual activity [20] 93% | residual activity [21] 100% | residual activity [22] 98% | residual activity [23] 100% | residual activity [24] 100% | residual activity [25] 100% | residual activity [26] 96% | residual activity [27] 100% | residual activity [28] 100% | residual activity [29] 100% | residual activity [30] 97% | residual activity [31] 100% | residual activity [32] 100% | residual activity [33] 100% | residual activity [34] 100% | residual activity [35] 87% | residual activity [36] 100% | inhibition [37] -2.51% | inhibition [38] 9.55%

C[C@@]1(Cc2ccc(C#N)cc2)C(=O)N(c2cc(Cl)cc(Cl)c2)c2ncc(C(=O)NC3(c4nc(C5CCC5)no4)CC3)n21 [BI 9446]
inactive: residual activity [1] 100% | residual activity [2] 100% | residual activity [3] 100% | residual activity [4] 100% | residual activity [5] 100% | residual activity [6] 80% | residual activity [7] 100% | residual activity [8] 100% | residual activity [9] 100% | residual activity [10] 100% | residual activity [11] 89% | residual activity [12] 100% | residual activity [13] 100% | residual activity [14] 100% | residual activity [15] 100% | residual activity [16] 93% | residual activity [17] 100% | residual activity [18] 78% | residual activity [19] 85% | residual activity [20] 100% | residual activity [21] 100% | residual activity [22] 100% | residual activity [23] 100% | residual activity [24] 100% | residual activity [25] 100% | residual activity [26] 100% | residual activity [27] 100% | residual activity [28] 100% | residual activity [29] 100% | residual activity [30] 88% | residual activity [31] 100% | residual activity [32] 98% | residual activity [33] 100% | residual activity [34] 100% | residual activity [35] 95% | residual activity [36] 98% | inhibition [37] 17.9% | inhibition [38] 27.6%
